Results on 42 compounds are retold here after patent US8865756B2, “Inhibitors of HCV NS5A” (Presidio Pharmaceuticals, Inc., priority 2008, dated 2014).

pEC50: −log10 of the molar value. Where only a bound is given, the exact number is not on record here.

This assay concerns HCV 1b_Huh-Luc/Neo-ET cell line persistently expressing a bicistronic genotype 1b replicon in Huh 7 cells. The assay is described as follows: HCV replicon assay (luciferase readout). Format: cell-based. The settings on record: Hepatitis C virus, Huh-7, 72 h, read-out: Inhibition of HCV genotype 1b. A digest of the protocol:
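Huh 7 cells carrying a genotype 1b luciferase/neo replicon treated in triplicate for 72 h, then luciferase activity measured. Signal expressed as % of control; EC50 from four-parameter logistic fit, determined several times.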
Background: A replicon is a self-replicating genome or part of one, used to study replication in cells.
Take `COC(=O)N[C@H](C(=O)N1CCC[C@H]1c1ncc(-c2ccc(C#Cc3ccc(-c4cnc([C@@H]5CCCN5C(=O)[C@@H](Nc5ncccn5)C(C)C)[nH]4)cc3)cc2)[nH]1)C(C)C` [Compound 1003]: the pEC50 is more than 9.00.

For `COC(=O)N[C@@H](C)C(=O)N1CCC[C@H]1c1ncc(-c2ccc(C#Cc3ccc(-c4cnc([C@@H]5CCCN5C(=O)[C@H](NC(=O)OC)c5ccccc5)[nH]4)cc3)cc2)[nH]1` [Compound 1004], the pEC50 is more than 9.00. To `COC(=O)N[C@@H](C(=O)N1CCC[C@H]1c1ncc(-c2ccc(C#Cc3ccc(-c4cnc([C@@H]5CCCN5C(=O)[C@H](C(C)C)N5CCOC5=O)[nH]4)cc3)cc2)[nH]1)c1ccccc1` [Compound 1005] belongs more than 9.00; to `CC(C)[C@@H](C(=O)N1CCC[C@H]1c1ncc(-c2ccc(C#Cc3ccc(-c4cnc([C@@H]5CCCN5C(=O)[C@H](C(C)C)N5CCOC5=O)[nH]4)cc3)cc2)[nH]1)N1CCOC1=O` [Compound 1006], 6.00 to 8.00. To `COC(=O)N[C@H](C(=O)N1CCC[C@H]1c1ncc(-c2ccc(C#Cc3ccc(-c4cnc([C@@H]5CCCN5C(=O)[C@@H](c5ccccc5)N5CCOC5=O)[nH]4)cc3)cc2)[nH]1)C(C)C` [Compound 1007] belongs more than 9.00; to `COC(=O)N[C@@H](C)C(=O)N1CCC[C@H]1c1ncc(-c2ccc(C#Cc3ccc(-c4cnc([C@@H]5CCCN5C(=O)[C@@H](c5ccccc5)N5CCOC5=O)[nH]4)cc3)cc2)[nH]1` [Compound 1008], more than 9.00. To `COC(=O)N[C@@H](C(=O)N1CCC[C@H]1c1ncc(-c2ccc(C#Cc3ccc(-c4cnc([C@@H]5CCCN5C(=O)[C@H](NC(=O)OC)c5ccccc5)[nH]4)cn3)cc2)[nH]1)c1ccccc1` [Compound 1010] belongs more than 9.00.

With `COC(=O)NC(C(=O)N1CCC[C@H]1c1ncc(-c2ccc(C#Cc3ccc(-c4cnc([C@@H]5CCCN5C(=O)[C@@H](NC(=O)OC)C(C)C)[nH]4)c(F)c3)cc2)[nH]1)C(C)C` (stereo partly drawn) [Compound 1011], the pEC50 was more than 9.00. To `COC(=O)N[C@H](C(=O)N1CCC[C@H]1c1ncc(-c2ccc(C#Cc3ccc(-c4cnc([C@@H]5CCCN5C(=O)[C@@H](NC(=O)OC)C5CCOCC5)[nH]4)c(F)c3)cc2)[nH]1)C1CCOCC1` [Compound 1012] belongs more than 9.00; to `COC(=O)N[C@@H](C(=O)N1CCC[C@H]1c1ncc(-c2ccc(C#Cc3ccc(-c4cnc([C@@H]5CCCN5C(=O)[C@H](NC(=O)OC)c5ccccc5)[nH]4)c(F)c3)cc2)[nH]1)c1ccccc1` [Compound 1013], more than 9.00; to `O=C(N[C@@H](C(=O)N1CCC[C@H]1c1ncc(-c2ccc(C#Cc3ccc(-c4cnc([C@@H]5CCCN5C(=O)[C@H](NC(=O)OC5CCOCC5)c5ccccc5)[nH]4)c(F)c3)cc2)[nH]1)c1ccccc1)OC1CCOCC1` [Compound 1014], more than 9.00. With `COC(=O)N[C@H](C(=O)N1CCC[C@H]1c1ncc(-c2ccc(C#Cc3ccc4nc([C@@H]5CCCN5C(=O)[C@@H](C(C)C)N(C)C)[nH]c4c3)cc2)[nH]1)C(C)C` [Compound 1020], the pEC50 is more than 9.00.

In the case of `COC(=O)N[C@H](C(=O)N1CCC[C@H]1c1ncc(-c2ccc(C#Cc3ccc4nc([C@@H]5CCCN5C(=O)[C@H](C(C)C)N(C)C)[nH]c4c3)cc2)[nH]1)C(C)C` [Compound 1021], the pEC50 was more than 9.00. Take `COC(=O)N[C@H](C(=O)N1CCC[C@H]1c1nc2ccc(C#Cc3ccc(-c4cnc([C@@H]5CCCN5C(=O)[C@H](NC(=O)OC)c5ccccc5)[nH]4)cc3)cc2[nH]1)C(C)C` [Compound 1022]: the pEC50 is more than 9.00.

As to `COC(=O)N[C@H](C(=O)N1CCC[C@H]1c1ncc(-c2ccc(C#Cc3ccc4nc([C@@H]5CCCN5C(=O)[C@H](NC(=O)OC)c5ccccc5)[nH]c4c3)cc2)[nH]1)C(C)C` [Compound 1023], the pEC50 was more than 9.00.

Turning to `CC[C@@H](C)[C@H](NC(=O)OC)C(=O)N1CCC[C@H]1c1ncc(-c2ccc(C#Cc3ccc4nc([C@@H]5CCCN5C(=O)[C@@H](NC(=O)OC)[C@H](C)CC)[nH]c4c3)cc2)[nH]1` [Compound 1024], the pEC50 was more than 9.00. To `COC(=O)N[C@H](C(=O)N1CCC[C@H]1c1ncc(-c2ccc(C#Cc3ccc4nc([C@@H]5CCCN5C(=O)[C@@H](NC(=O)OC)C5CCCC5)[nH]c4c3)cc2)[nH]1)C1CCCC1` [Compound 1025] belongs more than 9.00. To `COC(=O)N[C@H](C(=O)N1CSC[C@H]1c1ncc(-c2ccc(C#Cc3ccc4nc([C@@H]5CCCN5C(=O)[C@@H](NC(=O)OC)C(C)C)[nH]c4c3)cc2)[nH]1)C(C)C` [Compound 1026] belongs more than 9.00; to `COC(=O)N[C@H](C(=O)N1CCOC[C@H]1c1ncc(-c2ccc(C#Cc3ccc4nc([C@@H]5CCCN5C(=O)[C@@H](NC(=O)OC)C(C)C)[nH]c4c3)cc2)[nH]1)C(C)C` [Compound 1027], more than 9.00. To `COC(=O)N[C@@H](C)C(=O)N1CCC[C@H]1c1ncc(-c2ccc(C#Cc3ccc4nc([C@@H]5CCCN5C(=O)[C@H](C)NC(=O)OC)[nH]c4c3)cc2)[nH]1` [Compound 1028] belongs more than 9.00. In the case of `COC(=O)N[C@H](C(=O)N1CCC[C@H]1c1ncc(-c2ccc(C#Cc3ccc4nc([C@@H]5CCCN5C(=O)[C@@H](NC(=O)OC)C5CC5)[nH]c4c3)cc2)[nH]1)C1CC1` [Compound 1029], the pEC50 was more than 9.00. To `CCC(CC)[C@H](NC(=O)OC)C(=O)N1CCC[C@H]1c1ncc(-c2ccc(C#Cc3ccc4nc([C@@H]5CCCN5C(=O)[C@@H](NC(=O)OC)C(CC)CC)[nH]c4c3)cc2)[nH]1` [Compound 1030] belongs more than 9.00; to `COC(=O)N[C@H](C(=O)N1CCC[C@H]1c1ncc(-c2ccc(C#Cc3ccc4nc([C@@H]5CCCN5C(=O)[C@@H](NC(=O)OC)[C@H](C)O)[nH]c4c3)cc2)[nH]1)[C@H](C)O` [Compound 1031], more than 9.00.

Turning to `COC(=O)N[C@H](C(=O)N1CCCC[C@H]1c1ncc(-c2ccc(C#Cc3ccc4nc([C@@H]5CCCN5C(=O)[C@@H](NC(=O)OC)C(C)C)[nH]c4c3)cc2)[nH]1)C(C)C` [Compound 1032], the pEC50 was more than 9.00. To `COC(=O)N[C@H](C(=O)N1CCC[C@H]1c1ncc(-c2ccc(C#Cc3ccc4nc([C@@H]5CCCN5C(=O)[C@@H](NC(=O)OC)C(C)C)[nH]c4c3)nc2)[nH]1)C(C)C` [Compound 1033] belongs more than 9.00; to `CC(C)(C)OC(=O)N1CCCC1c1ncc(-c2ccc(C#Cc3ccc4nc([C@@H]5CCCN5C(=O)OC(C)(C)C)[nH]c4c3)cc2)[nH]1` (stereo partly drawn) [Compound 1034], 8.00 to 9.00; to `C(#Cc1ccc2nc([C@@H]3CCCN3)[nH]c2c1)c1ccc(-c2cnc([C@@H]3CCCN3)[nH]2)cc1` [Compound 1035], 6.00 to 8.00. To `CC[C@H](NC(=O)OC)C(=O)N1CCC[C@H]1c1ncc(-c2ccc(C#Cc3ccc4nc([C@@H]5CCCN5C(=O)[C@H](CC)NC(=O)OC)[nH]c4c3)cc2)[nH]1` [Compound 1036] belongs more than 9.00; to `COC[C@H](NC(=O)OC)C(=O)N1CCC[C@H]1c1ncc(-c2ccc(C#Cc3ccc4nc([C@@H]5CCCN5C(=O)[C@H](COC)NC(=O)OC)[nH]c4c3)cc2)[nH]1` [Compound 1037], more than 9.00; to `O=S(=O)(c1ccccc1)N1CCC[C@H]1c1ncc(-c2ccc(C#Cc3ccc4nc([C@@H]5CCCN5S(=O)(=O)c5ccccc5)[nH]c4c3)cc2)[nH]1` [Compound 1038], less than 6.00.

As to `CC(C)[C@@H](C(=O)N1CCC[C@H]1c1ncc(-c2ccc(C#Cc3ccc4nc([C@@H]5CCCN5C(=O)[C@H](C(C)C)N5CCOC5=O)[nH]c4c3)cc2)[nH]1)N1CCOC1=O` [Compound 1039], the pEC50 is 8.00 to 9.00. `COC(=O)N[C@H](C(=O)N1C[C@H](F)C[C@H]1c1ncc(-c2ccc(C#Cc3ccc4nc([C@@H]5CCCN5C(=O)[C@@H](NC(=O)OC)C(C)C)[nH]c4c3)cc2)[nH]1)C(C)C` [Compound 1040]: the pEC50 is more than 9.00. To `COC(=O)N[C@H](C(=O)N1CCC[C@H]1c1ncc(-c2ccc(C#Cc3ccc4nc([C@@H]5CCCN5C(=O)[C@@H](NC(=O)OC)C(C)(C)C)[nH]c4c3)cc2)[nH]1)C(C)(C)C` [Compound 1041] belongs more than 9.00. To `O=S(=O)(Cc1ccccc1)N1CCC[C@H]1c1ncc(-c2ccc(C#Cc3ccc4nc([C@@H]5CCCN5S(=O)(=O)Cc5ccccc5)[nH]c4c3)cc2)[nH]1` [Compound 1042] belongs less than 6.00; to `COC(=O)NC1(C(=O)N2CCC[C@H]2c2ncc(-c3ccc(C#Cc4ccc5nc([C@@H]6CCCN6C(=O)C6(NC(=O)OC)CC6)[nH]c5c4)cc3)[nH]2)CC1` [Compound 1043], 6.00 to 8.00.

In the case of `COC(=O)NC1(C(=O)N2CCC[C@H]2c2ncc(-c3ccc(C#Cc4ccc5nc([C@@H]6CCCN6C(=O)C6(NC(=O)OC)CCCC6)[nH]c5c4)cc3)[nH]2)CCCC1` [Compound 1044], the pEC50 is 6.00 to 8.00.

In the case of `COC(=O)N[C@@H](Cc1ccccc1)C(=O)N1CCC[C@H]1c1ncc(-c2ccc(C#Cc3ccc4nc([C@@H]5CCCN5C(=O)[C@H](Cc5ccccc5)NC(=O)OC)[nH]c4c3)cc2)[nH]1` [Compound 1045], the pEC50 was more than 9.00.

Take `COC(=O)N[C@@H](CC(N)=O)C(=O)N1CCC[C@H]1c1ncc(-c2ccc(C#Cc3ccc4nc([C@@H]5CCCN5C(=O)[C@H](CC(N)=O)NC(=O)OC)[nH]c4c3)cc2)[nH]1` [Compound 1046]: the pEC50 is 8.00 to 9.00.

As to `COC(=O)N[C@@H](CCC(=O)O)C(=O)N1CCC[C@H]1c1ncc(-c2ccc(C#Cc3ccc4nc([C@@H]5CCCN5C(=O)[C@H](CCC(=O)O)NC(=O)OC)[nH]c4c3)cc2)[nH]1` [Compound 1047], the pEC50 was 6.00 to 8.00.

For `COC(=O)N[C@@H](Cc1cnc[nH]1)C(=O)N1CCC[C@H]1c1ncc(-c2ccc(C#Cc3ccc4nc([C@@H]5CCCN5C(=O)[C@H](Cc5cnc[nH]5)NC(=O)OC)[nH]c4c3)cc2)[nH]1` [Compound 1048], the pEC50 is 8.00 to 9.00. In the case of `COC(=O)NCC(=O)N1CCC[C@H]1c1ncc(-c2ccc(C#Cc3ccc4nc([C@@H]5CCCN5C(=O)CNC(=O)OC)[nH]c4c3)cc2)[nH]1` [Compound 1049], the pEC50 was 6.00 to 8.00. To `COC(=O)NC(C)(C)C(=O)N1CCC[C@H]1c1ncc(-c2ccc(C#Cc3ccc4nc([C@@H]5CCCN5C(=O)C(C)(C)NC(=O)OC)[nH]c4c3)cc2)[nH]1` [Compound 1050] belongs 6.00 to 8.00.
